Measured values from patent US6362134B1, “Herbicidal 1,2,4,6-thiatriazines” (Syngenta Investment Corporation, priority 1996, dated 2002).

Tests used:
Format in all cases: in vivo
Avena = experiment: Herbicidal action before emergence of the plants (pre-emergent action); details: 2000 g of active substance/ha, sprayed immediately after sowing, evaluated after 3 weeks, ratings scale of nine levels (1=complete damage, 9=no action)
Procedure: (§1) Monocotyledon and dicotyledon test plants are sown in standard soil in plastic pots. Immediately after sowing, the test substances are sprayed on (500 l of water/ha) in an aqueous suspension prepared from a 25% wettable powder (Example F3, b)), corresponding to a dosage of 2000 g of active substance/ha. The test plants are then grown under optimum conditions in a greenhouse. After a test period of 3 weeks, the test is evaluated with a ratings scale of nine levels (1=complete damage, 9=no action). Ratings of 1 to 4 (in particular 1 to 3) mean a good to very good herbicidal action.
(§2) Test plants: Avena, Setaria, Sinapis, Stellaria

Setaria = experiment: as above; set-up: key: 1=complete damage; 9=no action; Ratings of 1 to 4 (in particular 1 to 3) mean a good to very good herbicidal action; details: 2000 g of active substance/ha, sprayed immediately after sowing, evaluated after 3 weeks, ratings scale of nine levels
Procedure: as §1, §2

Sinapis [1] = experiment: as above; set-up: key: 1=complete damage; 9=no action; Ratings of 1 to 4 (in particular 1 to 3) mean a good to very good herbicidal action; details: 2000 g of active substance/ha, sprayed immediately after sowing, evaluated after 3 weeks, ratings scale of nine levels
Procedure: as §1, §2

Stellaria [2] = experiment: as above; set-up: key: 1=complete damage; 9=no action; Ratings of 1 to 4 (in particular 1 to 3) mean a good to very good herbicidal action; details: 2000 g of active substance/ha, sprayed immediately after sowing, evaluated after 3 weeks, ratings scale of nine levels
Procedure: as §1, §2

Sinapis [3] = experiment: Post-emergent herbicidal action (contact herbicide); set-up: key: 1=complete damage; 9=no action; Ratings of 1 to 4 (in particular 1 to 3) mean a good to very good herbicidal action; details: 2000 g of active substance/ha, sprayed in the 4- to 6-leaf stage, evaluated after about 18 days, ratings scale 1-9
Procedure: (§3) Monocotyledon and dicotyledon test plants are grown in plastic pots with standard soil in a greenhouse and, in the 4- to 6-leaf stage, are sprayed with an aqueous suspension of the test substances of the formula 1, prepared from a 25% wettable power (Example F3, b)), corresponding to a dosage of 2000 g of active substance/ha (500 l of water/ha). The test plants are then grown further in the greenhouse under optimum conditions. After a test period of about 18 days, the test is evaluated with a ratings scale of 9 levels (1=complete damage, 9=no action). Ratings of 1 to 4 (in particular 1 to 3) mean a good to very good herbicidal action.
(§4) Test plants: Sinapis, Stellaria

Stellaria [4] = experiment: as above; set-up: key: 1=complete damage; 9=no action; Ratings of 1 to 4 (in particular 1 to 3) mean a good to very good herbicidal action; details: 2000 g of active substance/ha, sprayed in the 4- to 6-leaf stage, evaluated after about 18 days, ratings scale 1-9
Procedure: as §3, §4

| SMILES | Pre-emergent action, rating, Avena (Avena) | Pre-emergent action, rating, Setaria (Setaria) | Pre-emergent action, rating, Sinapis (Sinapis [1]) | Pre-emergent action, rating, Stellaria (Stellaria [2]) | Post-emergent action, rating, Sinapis (Sinapis [3]) | Post-emergent action, rating, Stellaria (Stellaria [4]) |
| --- | --- | --- | --- | --- | --- | --- |
| CC1(C)CCC(OS2=NC(N)=NC(Oc3c(F)c(F)c(F)c(F)c3F)=N2)CC1 (stereo not drawn) [5.52] | 4 | 2 | 1 | 1 | 2 | 2 |
| CC1CC(OS2=NC(N)=NC(Oc3c(F)c(F)c(F)c(F)c3F)=N2)CC(C)(C)C1 (stereo not drawn) [5.78] | 3 | 2 | 2 | 1 | 2 | 3 |
| CC1CC(C)CC(OS2=NC(N)=NC(Oc3c(F)c(F)c(F)c(F)c3F)=N2)C1 (stereo not drawn) [5.120] | 4 | 2 | 1 | 1 | 2 | 3 |
| CC(C)(C)C1CCC(OS2=NC(N)=NC(Oc3c(F)c(F)c(F)c(F)c3F)=N2)CC1 (stereo not drawn) [5.127] | 4 | 2 | 1 | 1 | 2 | 3 |
| CC1(C)CCCC(OS2=NC(N)=NC(Oc3c(F)c(F)c(F)c(F)c3F)=N2)C1 (stereo not drawn) [5.131] | 4 | 2 | 1 | 1 | 1 | 3 |
| NC1=NC(Oc2c(F)c(F)c(F)c(F)c2F)=NS(OC2CCCCCCC2)=N1 (stereo not drawn) [5.176] | 4 | 2 | 1 | 1 | 2 | 2 |
| C[Si](C)(C)COS1=NC(N)=NC(Oc2c(F)c(F)c(F)c(F)c2F)=N1 (stereo not drawn) [5.321] | 3 | 1 | 1 | 1 | 2 | 2 |
| CC1CCC(OS2=NC(N)=NC(Oc3c(F)c(F)c(F)c(F)c3F)=N2)CC1 (stereo not drawn) [5.326] | 4 | 4 | 1 | 1 | 2 | 4 |
| CC(OS1=NC(N)=NC(Oc2c(F)c(F)c(F)c(F)c2F)=N1)[Si](C)(C)C (stereo not drawn) [5.329] | 2 | 1 | 1 | 1 | 1 | 5 |
| CCCC(CC)OS1=NC(N)=NC(Oc2c(F)c(F)c(F)c(F)c2F)=N1 (stereo not drawn) [5.332] | 3 | 1 | 1 | 1 | 1 | 2 |
| CCC1CCCCN1S1=NC(N)=NC(Oc2c(F)c(F)c(F)c(F)c2F)=N1 (stereo not drawn) [6.30] | 3 | 2 | 1 | 1 | 2 | 3 |
| CC1(C)CCCN(S2=NC(N)=NC(Oc3c(F)c(F)c(F)c(F)c3F)=N2)C1 (stereo not drawn) [6.34] | 3 | 1 | 1 | 1 | 2 | 2 |
| NC1=NC(Oc2c(F)c(F)c(F)c(F)c2F)=NS(N2CCCC3CCCCC32)=N1 (stereo not drawn) [6.37] | 3 | 2 | 1 | 1 | 3 | 2 |
| NC1=NS(N2CCCCCC2)=NC(Oc2c(F)c(F)cc(F)c2F)=N1 (stereo not drawn) [6.89] | 2 | 2 | 1 | 1 | 2 | 3 |
| CC1CC(C)CN(S2=NC(N)=NC(Oc3c(F)c(F)c(F)c(F)c3F)=N2)C1 (stereo not drawn) [6.124] | 3 | 1 | 1 | 1 | 2 | 3 |
| CC1(C)CCCN(S2=NC(N)=NC(Oc3cc(F)ccc3F)=N2)C1 (stereo not drawn) [6.129] | 4 | 4 | 1 | 1 | 2 | 3 |
| NC1=NC(Oc2cc(F)ccc2F)=NS(N2CCCC3CCCCC32)=N1 (stereo not drawn) [6.135] | 3 | 3 | 1 | 1 | 3 | 3 |
| CCN(C1CC(C)CC(C)(C)C1)S1=NC(N)=NC(Oc2c(F)c(F)c(F)c(F)c2F)=N1 (stereo not drawn) [6.140] | 4 | 3 | 2 | 1 | 2 | 3 |
| NC1=NS(N2CCc3ccccc3C2)=NC(Oc2c(F)c(F)c(F)c(F)c2F)=N1 (stereo not drawn) [6.145] | 4 | 2 | 1 | 1 | 3 | 3 |
| CN(Cc1ccc(Cl)nc1)S1=NC(N)=NC(Oc2c(F)c(F)c(F)c(F)c2F)=N1 (stereo not drawn) [6.170] | 3 | 4 | 4 | 1 | 2 | 3 |
| NC1=NS(N2CCc3ccccc3C2)=NC(Oc2c(F)c(F)cc(F)c2F)=N1 (stereo not drawn) [6.173] | 4 | 3 | 1 | 1 | 2 | 3 |
| NC1=NS(N2CC3CCCC2CC3)=NC(Oc2c(F)c(F)c(F)c(F)c2F)=N1 (stereo not drawn) [6.185] | 4 | 4 | 1 | 1 | 1 | 1 |
| CN(Cc1ccccc1)S1=NC(N)=NC(Oc2c(F)c(F)c(F)c(F)c2F)=N1 (stereo not drawn) [6.192] | 2 | 1 | 1 | 1 | 2 | 4 |
| CC1CC(N(C)S2=NC(N)=NC(Oc3c(F)c(F)c(F)c(F)c3F)=N2)CC(C)(C)C1 (stereo not drawn) [6.194] | 7 | 5 | 2 | 2 | 2 | 4 |
| NC1=NC(Oc2c(F)c(F)c(F)c(F)c2F)=NS(N2CCc3ccccc3CC2)=N1 (stereo not drawn) [6.200] | 4 | 1 | 1 | 1 | 2 | 2 |
| NC1=NC(Oc2c(F)c(F)c(F)c(F)c2F)=NS(N2CCCCCC2)=N1 (stereo not drawn) [6.229] | 3 | 2 | 1 | 1 | 2 | 3 |
